Numbers after ± are expanded uncertainties.
Columns and labels:
[1] = Molar enthalpy of transition or fusion; conditions: Crystal; DSC
[2] = Crystal; DTA

Molar enthalpy of transition or fusion [1]: 11.2 ± 0.502 kcal/mol
Normal melting temperature [2]: 235.40 ± 1.1 °C
SMILES: O=C(NC[C@H]1CN(c2ccc(N3CCOCC3=O)cc2)C(=O)O1)c1ccc(Cl)s1 [Rivaroxaban]

From the NIST ThermoML archive (doi:10.1016/j.jct.2015.10.016)
